Data on two compounds can be found in US9708314B2, “Heterocyclic amide compound” (NISSAN CHEMICAL INDUSTRIES, LTD., priority 2013, dated 2017).

Holding throughout (format): in vivo
The subject of data set [1] is Echinochloa crus-galli var. crus-galli. Nature of the data set: Test Example 3: herbicidal effect by application to foliage (Wagner pot, water depth 0.1-0.5 cm). Conditions: Nineteenth Table; application to foliage; application herbicide amount 320 g/ha. The method in brief: (§1)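 Wagner pot foliar test: sow, grow 14 d (25–30 °C), spray diluted emulsion at set g/ha, score after 3 wk; 0 ≤5%, 5 ≥90% herbicidal ratio.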

A further data set relates to Leptochloa chinensis. The description is as above. Conditions: Nineteenth Table; application to foliage; application herbicide amount 320 g/ha. The method in brief:
as §1

The test system of data set [2] is directly sowed Oryza sativa. The experiment in a line: Test Example 3: effect on crop by application to foliage (Wagner pot, water depth 0.1-0.5 cm). Conditions: Nineteenth Table; application to foliage; application herbicide amount 320 g/ha. The source says:
5 Herbicidal ratio of 90% or more (almost completely withered) 4 Herbicidal ratio of 70% or more and less than 90% 3 Herbicidal ratio of 40% or more and less than 70% 2 Herbicidal ratio of 20% or more and less than 40% 1 Herbicidal ratio of 5% or more and less than 20% 0 Herbicidal ratio of 5% or less (almost no effect) [Test Example 3] Herbicidal Effect Test by Application to Foliage After alluvial soil was placed into 1/10000 are of Wagner pot, water was poured and mixed to form a condition having a water depth of 0.1 cm to 0.5 cm. Seeds of Echinochloa crus-galli var. crus-galli, Leptochloa chinensis, Cyperus difformis, and Oryza sativa were sowed and the pot was placed in the greenhouse of 25° C. to 30° C. to grow the plants. After the plants were grown for 14 days, the emulsion agent containing the compound of the present invention prepared in accordance with Formulation Example 2 was diluted with water so as to be a predetermined herbicide amount and the diluted compound was uniformly applied to a stem and leaf part with a small-size spray. Three weeks after the herbicide application, effects on each plant were investigated in accordance with the criteria of Test Example 1. A: Echinochloa oryzicola Vasing., B: Scirpus juncoides, C: Monochoria vaginalis, D: Leptochloa chinensis, E: Cyperus difformis, F: Digitaria ciliaris, G: Setaria viridis, H: Echinochloa crus-galli var. crus-galli, I: Avena fatua, J: Alopecurus myosuroides, K: Lolium multiflorum Lam., L: Apera spica-venti., M: Abutilon theophrasti, N: Amaranthus retroflexus, O: Chenopodium album, P: Stellaria media, Q: Galium spurium, R: Veronica persica, a: transplanted Oryza sativa, b: directly sowed Oryza sativa, c: Zea mays, d: Glycine max, e: Triticum aestivum, f: Beta vulgaris ssp. vulgaris, and g: Brassica campestris L. The application herbicide amount (g/ha) means an amount that a concentration is adjusted so that, when an application amount is converted into per hectare (1 ha), the herbicide is applied by the number of grams (g) of the described value.

A further data set has as its system Abutilon theophrasti. Nature of the data set: Test Example 4: herbicidal effect by application to foliage (diluvial soil, plastic box). Conditions: application to foliage. The source says: (§2) 5 Herbicidal ratio of 90% or more (almost completely withered) 4 Herbicidal ratio of 70% or more and less than 90% 3 Herbicidal ratio of 40% or more and less than 70% 2 Herbicidal ratio of 20% or more and less than 40% 1 Herbicidal ratio of 5% or more and less than 20% 0 Herbicidal ratio of 5% or less (almost no effect) [Test Example 4] Herbicidal Effect Test by Application to Foliage Sterilized diluvial soil was placed in a plastic box having a length of 21 cm, a width of 13 cm, and a depth of 7 cm. Each of the seeds of Digitaria ciliaris, Setaria viridis, Echinochloa crus-galli var. crus-galli, Avena fatua, Alopecurus myosuroides, Lolium multiflorum Lam., Apera spica-venti., Abutilon theophrasti, Amaranthus retroflexus, Chenopodium album, Stellaria media, Galium spurium, Veronica persica, Zea mays, Glycine max, Oryza sativa, Triticum aestivum, Beta vulgaris ssp. vulgaris, and Brassica campestris L. was sowed in a spot-like manner and was covered with the soil of about 1.5 cm thick. Thereafter, the plants were grown in the greenhouse of 25° C. to 30° C. After the plants were grown for 14 days, the emulsion agent containing the compound of the present invention prepared in accordance with Formulation Example 2 was diluted with water so as to be a predetermined herbicide amount and the diluted compound was uniformly applied to a stem and leaf part with a small-size spray. Three weeks after the herbicide application, effects on each plant were investigated in accordance with the criteria of Test Example 1. A: Echinochloa oryzicola Vasing., B: Scirpus juncoides, C: Monochoria vaginalis, D: Leptochloa chinensis, E: Cyperus difformis, F: Digitaria ciliaris, G: Setaria viridis, H: Echinochloa crus-galli var. crus-galli, I: Avena fatua, J: Alopecurus myosuroides, K: Lolium multiflorum Lam., L: Apera spica-venti., M: Abutilon theophrasti, N: Amaranthus retroflexus, O: Chenopodium album, P: Stellaria media, Q: Galium spurium, R: Veronica persica, a: transplanted Oryza sativa, b: directly sowed Oryza sativa, c: Zea mays, d: Glycine max, e: Triticum aestivum, f: Beta vulgaris ssp. vulgaris, and g: Brassica campestris L. The application herbicide amount (g/ha) means an amount that a concentration is adjusted so that, when an application amount is converted into per hectare (1 ha), the herbicide is applied by the number of grams (g) of the described value.

The subject of another data set is Alopecurus myosuroides. The description is as above. Conditions: application to foliage.
Text: as §2

A further data set relates to Amaranthus retroflexus. The description is as above. To be noted: application to foliage.
Text: as §2

The subject of the next data set is Apera spica-venti. The description is as above. To be noted: application to foliage.
Text: as §2

In the next data set the test system is Avena fatua. The data set is described as above. To be noted: application to foliage.
Text: as §2

The test system of another data set is Chenopodium album. Described as above. Conditions: application to foliage.
Text: as §2

For another data set, the system named is Digitaria ciliaris. The data set is described as above. Conditions: application to foliage.
Text: as §2

Data set [3] relates to Echinochloa crus-galli var. crus-galli. The data set is described as above. To be noted: application to foliage.
Text: as §2

For the next data set, the system named is Galium spurium. Described as above. Conditions: application to foliage.
Text: as §2

In another data set the test system is Lolium multiflorum Lam. The description is as above. Conditions: application to foliage.
Text: as §2

The test system of the next data set is Setaria viridis. The description is as above. Conditions: application to foliage.
Text: as §2

A further data set deals with Stellaria media. The data set is described as above. To be noted: application to foliage.
Text: as §2

For a further data set, the system named is Veronica persica. The description is as above. To be noted: application to foliage.
Text: as §2

In data set [4] the test system is Beta vulgaris ssp. vulgaris. The experiment in a line: Test Example 4: effect on crop by application to foliage (diluvial soil, plastic box). To be noted: application to foliage. The method in brief: (§3)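 Greenhouse plants (25° C. to 30° C., 14 d, diluvial soil) receive a foliar spray of water-diluted emulsifiable formulation at defined g/ha. Grading after 3 weeks uses a six-step herbicidal-ratio scale, with 4 covering 70% to <90% and 1 covering 5% to <20%.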

The next data set deals with Brassica campestris L. The description is as above. To be noted: application to foliage. A digest of the protocol:
as §3

A further data set has as its system Glycine max. Described as above. Conditions: application to foliage. The method in brief:
as §3

A further data set relates to Triticum aestivum. The data set is described as above. Conditions: application to foliage. A digest of the protocol: as §3
The subject of a further data set is Zea mays. The description is as above. To be noted: application to foliage. A digest of the protocol:
as §3

Data set [5] relates to directly sowed Oryza sativa. Described as above. To be noted: application to foliage. The method in brief: as §3
Where [6] appears, read: application herbicide amount 320 g/ha.

As to `CCN(C(=O)c1ccc(C(F)(F)F)n2c(C3(C)CC3(Cl)Cl)nnc12)c1nnc(C)o1` (centres unmarked) [1-174, 3-(2,2-Dichloro-1-methylcyclopropyl)-N-ethyl-N-(5-methyl-1,3,4-oxadiazol-2-yl)-5-(trifluoromethyl)-[1,2,4]triazolo[4,3-a]pyridine-8-carboxamide], the “H (herbicidal effect grade)” value in [1] was 2 (Herbicidal ratio of 20% or more and less than 40%). Moreover, the “D (herbicidal effect grade)” value in the data set with Leptochloa chinensis was 2 (Herbicidal ratio of 20% or more and less than 40%). The “b (effect on crop grade)” value in [2] was 0 (Herbicidal ratio of 5% or less (almost no effect)). In addition, in the data set on Abutilon theophrasti (setting [6]), the “M: herbicidal effect on Abutilon theophrasti” value is 0 (Herbicidal ratio of 5% or less (almost no effect)). Also, in the data set with Alopecurus myosuroides (setting [6]), the “J: herbicidal effect on Alopecurus myosuroides” value is 0 (Herbicidal ratio of 5% or less (almost no effect)). Further, the “N: herbicidal effect on Amaranthus retroflexus” value in the data set with Amaranthus retroflexus (setting [6]) was 4 (Herbicidal ratio of 70% or more and less than 90%). Besides, the “L: herbicidal effect on Apera spica-venti.” value in the data set on Apera spica-venti. (setting [6]) is recorded as 0 (Herbicidal ratio of 5% or less (almost no effect)). Moreover, the “I: herbicidal effect on Avena fatua” value with Avena fatua (setting [6]) is 0 (Herbicidal ratio of 5% or less (almost no effect)). For the same compound, the “O: herbicidal effect on Chenopodium album” value in the data set on Chenopodium album (setting [6]) is given as 5 (Herbicidal ratio of 90% or more (almost completely withered)). In addition, the “F: herbicidal effect on Digitaria ciliaris” value in the data set with Digitaria ciliaris (setting [6]) is given as 0 (Herbicidal ratio of 5% or less (almost no effect)). The “H: herbicidal effect on Echinochloa crus-galli var. crus-galli” value in data set [3] (setting [6]) is 0 (Herbicidal ratio of 5% or less (almost no effect)). Besides, the “Q: herbicidal effect on Galium spurium” value in the data set with Galium spurium (setting [6]) was 3 (Herbicidal ratio of 40% or more and less than 70%). The “K: herbicidal effect on Lolium multiflorum Lam.” value in the data set with Lolium multiflorum Lam. (setting [6]) was 0 (Herbicidal ratio of 5% or less (almost no effect)). In the data set with Setaria viridis (setting [6]), the “G: herbicidal effect on Setaria viridis” value is 0 (Herbicidal ratio of 5% or less (almost no effect)). For the same compound, the “P: herbicidal effect on Stellaria media” value with Stellaria media (setting [6]) is 3 (Herbicidal ratio of 40% or more and less than 70%). In addition, the “R: herbicidal effect on Veronica persica” value in the data set with Veronica persica (setting [6]) was 3 (Herbicidal ratio of 40% or more and less than 70%). In data set [4] (setting [6]), the “f: effect on crop, Beta vulgaris ssp. vulgaris” value was 4 (Herbicidal ratio of 70% or more and less than 90%). Also, in the data set on Brassica campestris L. (setting [6]), the “g: effect on crop, Brassica campestris L.” value is given as 0 (Herbicidal ratio of 5% or less (almost no effect)). Moreover, in the data set with Glycine max (setting [6]), the “d: effect on crop, Glycine max” value is 0 (Herbicidal ratio of 5% or less (almost no effect)). Moreover, in the data set with Triticum aestivum (setting [6]), the “e: effect on crop, Triticum aestivum” value is 0 (Herbicidal ratio of 5% or less (almost no effect)). For the same compound, the “c: effect on crop, Zea mays” value with Zea mays (setting [6]) is 0 (Herbicidal ratio of 5% or less (almost no effect)). The “b: effect on crop, directly sowed Oryza sativa” value in [5] (setting [6]) was 0 (Herbicidal ratio of 5% or less (almost no effect)).
Regarding `Cc1nonc1NC(=O)c1ccc(C(F)(F)F)n2c(SCC(C)C)nnc12` [3-002], in data set [1], the “H (herbicidal effect grade)” value is recorded as 0 (Herbicidal ratio of 5% or less (almost no effect)). Moreover, in the data set on Leptochloa chinensis, the “D (herbicidal effect grade)” value is 3 (Herbicidal ratio of 40% or more and less than 70%). Also, in data set [2], the “b (effect on crop grade)” value is 0 (Herbicidal ratio of 5% or less (almost no effect)). Further, the “herbicidal effect, M (Abutilon theophrasti)” value with Abutilon theophrasti (320 g/ha) is 1 (Herbicidal ratio of 5% or more and less than 20%). In addition, the “herbicidal effect, J (Alopecurus myosuroides)” value in the data set with Alopecurus myosuroides (320 g/ha) is listed as 0 (Herbicidal ratio of 5% or less (almost no effect)). The “herbicidal effect, N (Amaranthus retroflexus)” value with Amaranthus retroflexus (320 g/ha) is 3 (Herbicidal ratio of 40% or more and less than 70%). In addition, the “herbicidal effect, L (Apera spica-venti.)” value in the data set with Apera spica-venti. (320 g/ha) is given as 0 (Herbicidal ratio of 5% or less (almost no effect)). For the same compound, the “herbicidal effect, I (Avena fatua)” value in the data set with Avena fatua (320 g/ha) is 0 (Herbicidal ratio of 5% or less (almost no effect)). Besides, the “herbicidal effect, O (Chenopodium album)” value with Chenopodium album (320 g/ha) is 4 (Herbicidal ratio of 70% or more and less than 90%). In addition, the “herbicidal effect, F (Digitaria ciliaris)” value in the data set with Digitaria ciliaris (320 g/ha) is 0 (Herbicidal ratio of 5% or less (almost no effect)). Also, the “herbicidal effect, H (Echinochloa crus-galli var. crus-galli)” value in data set [3] (320 g/ha) was 0 (Herbicidal ratio of 5% or less (almost no effect)). Moreover, the “herbicidal effect, Q (Galium spurium)” value in the data set with Galium spurium (320 g/ha) is recorded as 0 (Herbicidal ratio of 5% or less (almost no effect)). Further, in the data set with Lolium multiflorum Lam. (320 g/ha), the “herbicidal effect, K (Lolium multiflorum Lam.)” value is 0 (Herbicidal ratio of 5% or less (almost no effect)). Also, the “herbicidal effect, G (Setaria viridis)” value with Setaria viridis (320 g/ha) was 0 (Herbicidal ratio of 5% or less (almost no effect)). In the data set on Stellaria media (320 g/ha), the “herbicidal effect, P (Stellaria media)” value is 1 (Herbicidal ratio of 5% or more and less than 20%). Also, the “herbicidal effect, R (Veronica persica)” value in the data set with Veronica persica (320 g/ha) is given as 0 (Herbicidal ratio of 5% or less (almost no effect)). Also, the “effect on crop, f (Beta vulgaris ssp. vulgaris)” value in [4] (320 g/ha) is given as 0 (Herbicidal ratio of 5% or less (almost no effect)). In addition, the “effect on crop, g (Brassica campestris L.)” value with Brassica campestris L. (320 g/ha) is given as 0 (Herbicidal ratio of 5% or less (almost no effect)). Further, in the data set on Glycine max (320 g/ha), the “effect on crop, c (Glycine max)” value is recorded as 0 (Herbicidal ratio of 5% or less (almost no effect)). For the same compound, the “effect on crop, e (Triticum aestivum)” value in the data set with Triticum aestivum (320 g/ha) is 0 (Herbicidal ratio of 5% or less (almost no effect)). In the data set on Zea mays (320 g/ha), the “effect on crop, b (Zea mays)” value is given as 0 (Herbicidal ratio of 5% or less (almost no effect)). Also, in data set [5] (320 g/ha), the “effect on crop, d (directly sowed Oryza sativa)” value is 0 (Herbicidal ratio of 5% or less (almost no effect)).
